From patent US10201610B2, “Interference peptides and use thereof” (The University of Western Australia, priority 2014, dated 2019)
Ends that are not written are not given here.

Legend:
SUM149PT cells = assay: Hoechst staining of apoptotic nuclei in SUM149PT cells; assay type: cell-based, human; details: 8 hours, compared with non-treated or iPep624ΔHEX-treated cells
Source text: FIG. 3 Design of an EN1-specific interference peptide (EN1-iPep). (a) Molecular model of HOXA9 and PBX1 tertiary complex formation with the DNA (PDB: 1PUF). HOXA9 (hexapeptide “donor”) is shown in green; PBX (“partner”) in blue. The N-terminal peptide of HOXA9 (magenta) is essential to make contact with the DNA minor groove, as well as to stabilize the binding of HOXA9 with PBX1. The conserved tryptophan residue (W, arrow) is shown within the hexapeptide and it is responsible for anchoring the loop in PBX1. HD=Homeodomain. (b) A multiple alignment of the EN1-iPeps across species, with the consensus sequence of the iPep indicated below. […] Cells were treated for 8 hours and cell viability assessed by Cell Titer Glo assay (CTG). […] (e) Caspase 3 activity in SUM149PT cells measured after eight hours of iPep624 (SEQ ID NO: 5) or iPep624ΔHEX […]) treatment. […] Statistical significance was analyzed using the Student t-Test (*** p<0.001). […] Histogram represents the quantification of Hoechst positive cells per field of view at 40× magnification. […] Cell viability was assessed by Cell Titer Glo (CTG) assay and percentage of survival (%) was normalized to the control treated cells. […]
The EN1-iPeps and iPep controls were first tested in SUM149PT cells carrying high EN1 expression. […] Treated cells were first analyzed using the Cell Titer Glo assay, which monitors metabolic viability. […]

[1] = system: PBX family members (notably, PBX1); assay: Immunoprecipitation and western blotting of TFHDs from SUM149PT extracts; assay type: binding, human; details: versus control peptide
Source text: To investigate the binding partners of the iPeps in cancer cells, the inventors carried out affinity capture immunoprecipitation experiments using the biotinylated active iPep624 as bait, and the iPep624ΔHEX as negative control. They used total protein extracts from SUM149PT cells to capture endogenous proteins able to bind these peptides in vitro. Elutes were loaded in a 1D-SDS PAGE gel to visualize the enrichment of individual proteins. […] In addition, overexpression of EN1 cDNA into two different breast cell lines confirmed the interaction of the full length EN1 with the endogenous EPRS inside the cells (FIG. 6c). To ascertain whether some downstream well-known effectors of EPRS were also differentially regulated by the iPeps, we performed real time PCR to detect mRNA levels of COLA1, COLA2, S1004A and DDIT3 (CHOP). […] COLA1 and COLA2 encode collagen proteins highly enriched by the amino acid proline and S1004A is a protein involved in metastasis and fibrosis. […] In contrast, the amino acid stress factor DDIT3 is stimulated upon EPRS inhibition. […]
The iPep624 and iPep624ΔHEX were coupled to a C-terminal biotin and immobilized in streptavidin-coated beads. […] Detection was performed with ECL Detection System (GE Healthcare) and quantitated using Image J v1.46 (ImageJ, NCBI).

KKKRKVTDSQQPLVWPAWVYCTRYSDRPS [iPep624]
number of apoptotic nuclei (SUM149PT cells): significantly higher | interaction with PBX family members (notably, PBX1) [1]: specific interactions
